Results taken from ChEMBL document CHEMBL5528009, “Benzothiozinone derivatives with anti-tubercular Activity-Further side chain investigation” (Eur J Med Chem, 2024).

Tests used:
[1] = system: Mycobacterium tuberculosis; assay: Antitubercular activity against multidrug-resistant Mycobacterium tuberculosis clinical isolate 16,121; type: functional
[2] = system: Mycobacterium tuberculosis; assay: Antitubercular activity against multidrug-resistant Mycobacterium tuberculosis clinical isolate 16,030; type: functional

Compound	MIC [1] [µg/mL]	MIC [2] [µg/mL]
CN(CC#CC1CCCCC1)c1nc(=O)c2cc(C(F)(F)F)cc([N+](=O)[O-])c2s1	< 0.016	< 0.016
CN(CC#Cc1ccccc1)c1nc(=O)c2cc(C(F)(F)F)cc([N+](=O)[O-])c2s1	< 0.016	< 0.016
CN(CC#Cc1cscn1)c1nc(=O)c2cc(C(F)(F)F)cc([N+](=O)[O-])c2s1	< 0.016	< 0.016
NNC(=O)c1ccncc1 [ISONIAZID]	> 10	> 10
CO[C@H]1/C=C/O[C@@]2(C)Oc3c(C)c(O)c4c(O)c(c(/C=N/N5CCN(C)CC5)c(O)c4c3C2=O)NC(=O)/C(C)=C\C=C\[C@H](C)[C@H](O)[C@@H](C)[C@@H](O)[C@@H](C)[C@H](OC(C)=O)[C@@H]1C [RIFAMPIN]	> 10	> 10
